Reference: patent publication US11629171B2, “Beta-hairpin peptidomimetics” (POLYPHOR AG, priority 2017, dated 2023)
In brackets after ≈: the same amount, converted by molar mass. Where a SMILES comes first, the peptide text is derived from it. Bridges are numbered along the chain shown (N, C = ends). Roman numbers before positions name the chains, in order. [ ]: non-standard residue; d: D form. Thr(ol) = C[C@@H](O)[C@H](N)CO; pGlu = O=C1CC[C@@H](C(=O)O)N1; Tle = CC(C)(C)[C@H](N)C(=O)O; Hiv = CC(C)[C@H](O)C(=O)O; dDab = NCC[C@@H](N)C(=O)O; hSer = N[C@@H](CCO)C(=O)O; Dab = NCC[C@H](N)C(=O)O; Dap = NC[C@H](N)C(=O)O

Columns and labels:
Assay type in all cases: cell-based
[1] = tested on: Klebsiella pneumoniae SSI #3010; settings: SSI #3010
Summary of the method: (§1)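 MIC in μg/mL, read as absence of visible growth after 18-20 h incubation at 35° C, by standard CLSI microdilution. Peptides tested in two-fold serial dilution in cation-adjusted MH-II broth containing 0.002% (final) Polysorbate 80, against roughly 10^6 CFU/mL inocula.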

[2] = tested on: Pseudomonas aeruginosa ATCC 27853; settings: ATCC 27853
Summary of the method: as §1

[3] = tested on: Escherichia coli ATCC 25922; settings: ATCC 25922
Summary of the method: as §1

Escherichia coli 926415 = settings: 926415
Summary of the method: as §1

[4] = tested on: Acinetobacter baumannii 872842; settings: 872842
Summary of the method: as §1

[5] = tested on: Enterobacter cloacae 848840; settings: 848840
Summary of the method: as §1

[6] = tested on: Acinetobacter baumannii DSM 30008; settings: DSM 30008
Summary of the method: as §1

[7] = tested on: Klebsiella pneumoniae 968733; settings: 968733
Summary of the method: as §1

[8] = tested on: human red blood cells (hRBC); assay: Hemolysis; settings: red cells of human, 1 h, 200
Summary of the method: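 First, fresh human erythrocytes are washed in PBS; next, they are incubated at 20% (v/v) with compound at 200 μg/mL for 1 h at 37° C. Finally, centrifuged supernatants are diluted and OD540 is taken relative to the Triton X-100 lysis control.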

Row | MIC [1] [µg/mL] | MIC [2] [µg/mL] | MIC [3] [µg/mL] | MIC (Escherichia coli 926415) [µg/mL] | MIC [4] [µg/mL] | MIC [5] [µg/mL] | MIC [6] [µg/mL] | MIC [7] [µg/mL] | Structure (SMILES) | Hemolysis at 200 μg/mL [8] [%]
1 | 0.125 (≈ 0.0518 µM) | 0.25 (≈ 0.104 µM) | 0.0625 (≈ 0.0259 µM) | 0.125 (≈ 0.0518 µM) | 0.25 (≈ 0.104 µM) | 0.125 (≈ 0.0518 µM) | 0.0625 (≈ 0.0259 µM) | 0.125 (≈ 0.0518 µM) | CC(C)C[C@@H]1NC(=O)[C@@H](CC(C)C)NC(=O)[C@H](CCN)NC(=O)[C@@H](NC(=O)[C@H](CCN)NC(=O)[C@@H](NC(=O)[C@H](CCN)NC(=O)CC[C@@H]2NC(=O)[C@H](CCN)NC(=O)[C@H](Cc3ccc(O)cc3)NC(=O)[C@@H](NC(=O)[C@@H](O)C(C)C)CSSC[C@@H](C(=O)N[C@H](CO)[C@@H](C)O)NC(=O)[C@H](C(C)(C)C)NC(=O)[C@H]([C@@H](C)O)NC(=O)[C@H](Cc3c[nH]c4ccccc34)NC(=O)[C@H](CCO)NC(=O)[C@@H](CCN)NC2=O)[C@@H](C)O)CCNC(=O)[C@H]([C@@H](C)O)NC(=O)[C@H](CCN)NC(=O)[C@H](CCN)NC1=O [Ex. 76] (I: H-[Hiv]CY[Dab]E[dDab][hSer]WT[Tle]C[Thr(ol)] / II: [Dab]T[Dab][Dab][Dab][dL]L[Dab][Dab]T; disulfide I:2-I:11; amide I:5-II:N; lactam II:4-II:C) | 1
2 | 0.125 (≈ 0.0518 µM) | 0.125 (≈ 0.0518 µM) | 0.125 (≈ 0.0518 µM) | 0.25 (≈ 0.104 µM) | 0.25 (≈ 0.104 µM) | 0.25 (≈ 0.104 µM) | 0.125 (≈ 0.0518 µM) | 0.25 (≈ 0.104 µM) | CC(C)C[C@@H]1NC(=O)[C@@H](CC(C)C)NC(=O)[C@H](CCN)NC(=O)[C@@H](NC(=O)[C@H](CCN)NC(=O)[C@@H](NC(=O)[C@H](CCN)NC(=O)CC[C@@H]2NC(=O)[C@H](CCN)NC(=O)[C@H](Cc3ccc(O)cc3)NC(=O)[C@@H](NC(=O)[C@@H]3CCC(=O)N3)CSSC[C@@H](C(=O)N[C@H](CO)[C@@H](C)O)NC(=O)[C@H](C(C)(C)C)NC(=O)[C@H](CO)NC(=O)[C@H](Cc3c[nH]c4ccccc34)NC(=O)[C@H](CCO)NC(=O)[C@@H](CCN)NC2=O)[C@@H](C)O)CCNC(=O)[C@H]([C@@H](C)O)NC(=O)[C@H](CCN)NC(=O)[C@H](CCN)NC1=O [Ex. 77] (I: [pGlu]CY[Dab]E[dDab][hSer]WS[Tle]C[Thr(ol)] / II: [Dab]T[Dab][Dab][Dab][dL]L[Dab][Dab]T; disulfide I:2-I:11; amide I:5-II:N; lactam II:4-II:C) | <1
3 | 0.25 (≈ 0.105 µM) | 0.125 (≈ 0.0524 µM) | 0.03125 (≈ 0.0131 µM) | 0.125 (≈ 0.0524 µM) | 0.125 (≈ 0.0524 µM) | 2 (≈ 0.838 µM) | 0.0625 (≈ 0.0262 µM) | 0.0625 (≈ 0.0262 µM) | CC(C)C[C@@H]1NC(=O)[C@@H](CC(C)C)NC(=O)[C@H](CCN)NC(=O)[C@@H](NC(=O)[C@H](CCN)NC(=O)[C@@H](NC(=O)[C@H](CCN)NC(=O)CC[C@@H]2NC(=O)[C@H](CCN)NC(=O)[C@H](Cc3ccc(O)cc3)NC(=O)[C@@H](NC(=O)[C@@H](O)C(C)C)CSSC[C@@H](C(=O)N[C@H](CO)[C@@H](C)O)NC(=O)[C@H](C(C)C)NC(=O)[C@H](CO)NC(=O)[C@H](Cc3c[nH]c4ccccc34)NC(=O)[C@H](CCO)NC(=O)[C@@H](CCN)NC2=O)[C@@H](C)O)CCNC(=O)[C@H]([C@@H](C)O)NC(=O)[C@H](CCN)NC(=O)[C@H](CCN)NC1=O [Ex. 78] (I: H-[Hiv]CY[Dab]E[dDab][hSer]WSVC[Thr(ol)] / II: [Dab]T[Dab][Dab][Dab][dL]L[Dab][Dab]T; disulfide I:2-I:11; amide I:5-II:N; lactam II:4-II:C) | <1
4 | 0.0625 (≈ 0.0262 µM) | 0.125 (≈ 0.0524 µM) | 0.0625 (≈ 0.0262 µM) | 0.0625 (≈ 0.0262 µM) | 0.0625 (≈ 0.0262 µM) | 0.0625 (≈ 0.0262 µM) | 0.03125 (≈ 0.0131 µM) | 0.0625 (≈ 0.0262 µM) | CC(C)C[C@@H]1NC(=O)[C@@H](CC(C)C)NC(=O)[C@H](CCN)NC(=O)[C@@H](NC(=O)[C@H](CCN)NC(=O)[C@@H](NC(=O)[C@H](CCN)NC(=O)CC[C@@H]2NC(=O)[C@H](CN)NC(=O)[C@H](Cc3ccc(O)cc3)NC(=O)[C@@H](NC(=O)[C@@H](O)C(C)C)CSSC[C@@H](C(=O)N[C@H](CO)[C@@H](C)O)NC(=O)[C@H](C(C)(C)C)NC(=O)[C@H](CO)NC(=O)[C@H](Cc3c[nH]c4ccccc34)NC(=O)[C@H](CCO)NC(=O)[C@@H](CCN)NC2=O)[C@@H](C)O)CCNC(=O)[C@H]([C@@H](C)O)NC(=O)[C@H](CCN)NC(=O)[C@H](CCN)NC1=O [Ex. 79] (I: H-[Hiv]CY[Dap]E[dDab][hSer]WS[Tle]C[Thr(ol)] / II: [Dab]T[Dab][Dab][Dab][dL]L[Dab][Dab]T; disulfide I:2-I:11; amide I:5-II:N; lactam II:4-II:C) | <1
5 | 0.125 (≈ 0.0524 µM) | 0.125 (≈ 0.0524 µM) | 0.03125 (≈ 0.0131 µM) | 0.0625 (≈ 0.0262 µM) | 0.0625 (≈ 0.0262 µM) | 0.125 (≈ 0.0524 µM) | 0.125 (≈ 0.0524 µM) | 0.125 (≈ 0.0524 µM) | CC(C)C[C@@H]1NC(=O)[C@@H](CC(C)C)NC(=O)[C@H](CCN)NC(=O)[C@@H](NC(=O)[C@H](CCN)NC(=O)[C@@H](NC(=O)[C@H](CCN)NC(=O)CC[C@@H]2NC(=O)[C@H](CCN)NC(=O)[C@H](Cc3ccc(O)cc3)NC(=O)[C@@H](NC(=O)[C@@H](O)C(C)C)CSSC[C@@H](C(=O)N[C@H](CO)[C@@H](C)O)NC(=O)[C@H](C(C)(C)C)NC(=O)[C@H](CO)NC(=O)[C@H](Cc3c[nH]c4ccccc34)NC(=O)[C@H](CO)NC(=O)[C@@H](CCN)NC2=O)[C@@H](C)O)CCNC(=O)[C@H]([C@@H](C)O)NC(=O)[C@H](CCN)NC(=O)[C@H](CCN)NC1=O [Ex. 80] (I: H-[Hiv]CY[Dab]E[dDab]SWS[Tle]C[Thr(ol)] / II: [Dab]T[Dab][Dab][Dab][dL]L[Dab][Dab]T; disulfide I:2-I:11; amide I:5-II:N; lactam II:4-II:C) | <1
6 | 0.0625 (≈ 0.0259 µM) | 0.125 (≈ 0.0518 µM) | 0.0625 (≈ 0.0259 µM) | 0.125 (≈ 0.0518 µM) | 0.25 (≈ 0.104 µM) | 0.125 (≈ 0.0518 µM) | 0.125 (≈ 0.0518 µM) | 0.125 (≈ 0.0518 µM) | CC(C)C[C@@H]1NC(=O)[C@@H](CC(C)C)NC(=O)[C@H](CCN)NC(=O)[C@@H](NC(=O)[C@H](CCN)NC(=O)[C@@H](NC(=O)[C@H](CCN)NC(=O)CC[C@@H]2NC(=O)[C@H](CCN)NC(=O)[C@H](Cc3ccc(O)cc3)NC(=O)[C@@H](NC(=O)[C@@H](O)C(C)C)CSSC[C@@H](C(=O)N[C@H](CO)[C@@H](C)O)NC(=O)[C@H](C(C)(C)C)NC(=O)[C@H](CCO)NC(=O)[C@H](Cc3c[nH]c4ccccc34)NC(=O)[C@H](CCO)NC(=O)[C@@H](CCN)NC2=O)[C@@H](C)O)CCNC(=O)[C@H]([C@@H](C)O)NC(=O)[C@H](CCN)NC(=O)[C@H](CCN)NC1=O [Ex. 81] (I: H-[Hiv]CY[Dab]E[dDab][hSer]W[hSer][Tle]C[Thr(ol)] / II: [Dab]T[Dab][Dab][Dab][dL]L[Dab][Dab]T; disulfide I:2-I:11; amide I:5-II:N; lactam II:4-II:C) | <1
7 | 0.0625 (≈ 0.0259 µM) | 0.25 (≈ 0.104 µM) | 0.0625 (≈ 0.0259 µM) | 0.5 (≈ 0.207 µM) | 0.25 (≈ 0.104 µM) | 0.25 (≈ 0.104 µM) | 0.125 (≈ 0.0518 µM) | 0.25 (≈ 0.104 µM) | CC(C)C[C@@H]1NC(=O)[C@@H](CC(C)C)NC(=O)[C@H](CCN)NC(=O)[C@@H](NC(=O)[C@H](CCN)NC(=O)[C@@H](NC(=O)[C@H](CCN)NC(=O)CC[C@@H]2NC(=O)[C@H](CCN)NC(=O)[C@H](Cc3ccc(O)cc3)NC(=O)[C@@H](NC(=O)[C@@H](O)C(C)C)CSSC[C@@H](C(=O)N[C@H](CO)[C@@H](C)O)NC(=O)[C@H](C(C)(C)C)NC(=O)[C@H](CCO)NC(=O)[C@H](Cc3c[nH]c4ccccc34)NC(=O)[C@H]([C@@H](C)O)NC(=O)[C@@H](CCN)NC2=O)[C@@H](C)O)CCNC(=O)[C@H]([C@@H](C)O)NC(=O)[C@H](CCN)NC(=O)[C@H](CCN)NC1=O [Ex. 82] (I: H-[Hiv]CY[Dab]E[dDab]TW[hSer][Tle]C[Thr(ol)] / II: [Dab]T[Dab][Dab][Dab][dL]L[Dab][Dab]T; disulfide I:2-I:11; amide I:5-II:N; lactam II:4-II:C) | <1
